Holding throughout (assay): relative viability (nuclei count vs DMSO), 5 days (fraction); higher = more cells survive
Compound in the experiment “Lapatinib + Olaparib”: CS(=O)(=O)CCNCc1ccc(-c2ccc3ncnc(Nc4ccc(OCc5cccc(F)c5)c(Cl)c4)c3c2)o1 [Lapatinib] + O=C(c1cc(Cc2n[nH]c(=O)c3ccccc23)ccc1F)N1CCN(C(=O)C2CC2)CC1 [Olaparib] (partner 8 µM)
In a few lines:
(§1)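 Relative viability equals treated-well nuclei counts divided by vehicle-well nuclei counts. Counts came from 4× images of lung cancer cell lines grown in 1536-well plates for 5 days after pin-tool dosing on the day after seeding. Dosing used one drug alone or a fixed anchor-drug dose plus five library-drug doses (not always all listed) in √10 steps, and values are medians of duplicate plates.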

Compound in the experiment “Wnt-C59 + Olaparib”: CC1=NC=CC(=C1)C2=CC=C(C=C2)CC(=O)NC3=CC=C(C=C3)C4=CN=CC=C4 [Wnt-C59] + O=C(c1cc(Cc2n[nH]c(=O)c3ccccc23)ccc1F)N1CCN(C(=O)C2CC2)CC1 [Olaparib] (partner 8 µM)
In a few lines:
as §1

Compound in the experiment “Wnt-C59 + OSI-027”: CC1=NC=CC(=C1)C2=CC=C(C=C2)CC(=O)NC3=CC=C(C=C3)C4=CN=CC=C4 [Wnt-C59] + COc1cccc2cc(-c3nc([C@H]4CC[C@H](C(=O)O)CC4)n4ncnc(N)c34)[nH]c12 [OSI-027] (partner 0.5 µM)
In outline: as §1

Compound in the experiment “Lapatinib + Dasatinib”: CS(=O)(=O)CCNCc1ccc(-c2ccc3ncnc(Nc4ccc(OCc5cccc(F)c5)c(Cl)c4)c3c2)o1 [Lapatinib] + Cc1nc(Nc2ncc(C(=O)Nc3c(C)cccc3Cl)s2)cc(N2CCN(CCO)CC2)n1 [Dasatinib] (partner 0.075 µM)
In a few lines: as §1

On to NCI-H3122, for which the relative viability with Lapatinib + Olaparib (first compound 0.02 µM) is 0.582; with Lapatinib + Olaparib (first compound 0.06325 µM) it was 0.576; with Lapatinib + Olaparib (first compound 0.2 µM) it was 0.595; with Lapatinib + Olaparib (first compound 0.6325 µM), 0.627; with Lapatinib + Olaparib (first compound 2 µM), 0.558; in the experiment with Wnt-C59 + Olaparib (first compound 0.001 µM), 0.633. The relative viability in the experiment with Wnt-C59 + Olaparib (first compound 0.01 µM) came to 0.549; with Wnt-C59 + Olaparib (first compound 0.03162 µM) it was 0.637; with Wnt-C59 + Olaparib (first compound 0.1 µM) it was 0.504; with Wnt-C59 + OSI-027 (first compound 0.001 µM), 1.02; with Wnt-C59 + OSI-027 (first compound 0.01 µM), 0.978; with Wnt-C59 + OSI-027 (first compound 0.03162 µM), 1.32. Further, the relative viability turned out to be 0.891 with Wnt-C59 + OSI-027 (first compound 0.1 µM); 0.736 with Lapatinib + Dasatinib (first compound 0.02 µM); 0.407 in the experiment with Lapatinib + Dasatinib (first compound 0.06325 µM); 0.85 in the experiment with Lapatinib + Dasatinib (first compound 0.2 µM); 0.675 with Lapatinib + Dasatinib (first compound 0.6325 µM); 0.859 with Lapatinib + Dasatinib (first compound 2 µM).
PC-3 [JPC-3]: the relative viability with Lapatinib + Olaparib (first compound 0.06325 µM) was 1.09; with Lapatinib + Olaparib (first compound 0.6325 µM), 1.16; in the experiment with Lapatinib + Olaparib (first compound 2 µM), 0.883; in the experiment with Wnt-C59 + Olaparib (first compound 0.001 µM), 1.18; with Wnt-C59 + Olaparib (first compound 0.01 µM), 1.21; with Wnt-C59 + Olaparib (first compound 0.03162 µM), 1.22. Moreover, the relative viability stood at 1.16 with Wnt-C59 + Olaparib (first compound 0.1 µM); 0.83 in the experiment with Wnt-C59 + OSI-027 (first compound 0.001 µM); 0.738 with Wnt-C59 + OSI-027 (first compound 0.01 µM); 0.83 with Wnt-C59 + OSI-027 (first compound 0.03162 µM); 0.773 in the experiment with Wnt-C59 + OSI-027 (first compound 0.1 µM); 0.877 in the experiment with Lapatinib + Dasatinib (first compound 0.02 µM). Besides, the relative viability in the experiment with Lapatinib + Dasatinib (first compound 0.06325 µM) was determined as 0.87; with Lapatinib + Dasatinib (first compound 0.2 µM) it was 1; with Lapatinib + Dasatinib (first compound 0.6325 µM), 0.977; with Lapatinib + Dasatinib (first compound 2 µM), 0.624.
With PC-14, the relative viability stood at 0.209 with Lapatinib + Olaparib (first compound 0.02 µM); 0.286 with Lapatinib + Olaparib (first compound 0.06325 µM); 0.291 with Lapatinib + Olaparib (first compound 0.2 µM); 0.263 in the experiment with Lapatinib + Olaparib (first compound 0.6325 µM); 0.217 with Lapatinib + Olaparib (first compound 2 µM); 0.26 with Wnt-C59 + Olaparib (first compound 0.001 µM). The relative viability with Wnt-C59 + Olaparib (first compound 0.01 µM) was determined as 0.248; with Wnt-C59 + Olaparib (first compound 0.03162 µM), 0.342; with Wnt-C59 + Olaparib (first compound 0.1 µM), 0.292; with Wnt-C59 + OSI-027 (first compound 0.001 µM) it was 1.01; in the experiment with Wnt-C59 + OSI-027 (first compound 0.01 µM), 0.897; in the experiment with Wnt-C59 + OSI-027 (first compound 0.03162 µM), 1.18. Moreover, the relative viability with Wnt-C59 + OSI-027 (first compound 0.1 µM) stood at 0.731; in the experiment with Lapatinib + Dasatinib (first compound 0.02 µM), 0.25; with Lapatinib + Dasatinib (first compound 0.06325 µM), 0.198; in the experiment with Lapatinib + Dasatinib (first compound 0.2 µM), 0.251; with Lapatinib + Dasatinib (first compound 0.6325 µM), 0.159; with Lapatinib + Dasatinib (first compound 2 µM) it was 0.0375.
Turning to RERF-LC-KJ, the relative viability with Lapatinib + Olaparib (first compound 0.02 µM) was found to be 0.934; in the experiment with Lapatinib + Olaparib (first compound 0.06325 µM), 0.896; with Lapatinib + Olaparib (first compound 0.2 µM), 0.947; in the experiment with Lapatinib + Olaparib (first compound 0.6325 µM), 0.811; in the experiment with Lapatinib + Olaparib (first compound 2 µM), 0.682; in the experiment with Wnt-C59 + Olaparib (first compound 0.001 µM), 0.787. Further, the relative viability with Wnt-C59 + Olaparib (first compound 0.01 µM) was 0.846; with Wnt-C59 + Olaparib (first compound 0.03162 µM), 1.12; with Wnt-C59 + Olaparib (first compound 0.1 µM), 0.877; with Wnt-C59 + OSI-027 (first compound 0.001 µM), 0.599; with Wnt-C59 + OSI-027 (first compound 0.01 µM) it was 0.504; with Wnt-C59 + OSI-027 (first compound 0.03162 µM), 0.658. Moreover, the relative viability in the experiment with Wnt-C59 + OSI-027 (first compound 0.1 µM) was 0.56; with Lapatinib + Dasatinib (first compound 0.02 µM), 0.812; with Lapatinib + Dasatinib (first compound 0.06325 µM), 0.545; in the experiment with Lapatinib + Dasatinib (first compound 0.2 µM) it was 0.732; with Lapatinib + Dasatinib (first compound 0.6325 µM) it was 0.75; with Lapatinib + Dasatinib (first compound 2 µM), 0.36.
For the cell line SK-LU-1, the relative viability in the experiment with Lapatinib + Olaparib (first compound 0.02 µM) was found to be 0.298; with Lapatinib + Olaparib (first compound 0.06325 µM), 0.449; in the experiment with Lapatinib + Olaparib (first compound 0.2 µM), 0.565; with Lapatinib + Olaparib (first compound 0.6325 µM), 0.555; with Lapatinib + Olaparib (first compound 2 µM) it was 0.433; with Wnt-C59 + Olaparib (first compound 0.001 µM), 0.444. Also, the relative viability with Wnt-C59 + Olaparib (first compound 0.01 µM) is 0.476; in the experiment with Wnt-C59 + Olaparib (first compound 0.03162 µM), 0.4; with Wnt-C59 + Olaparib (first compound 0.1 µM), 0.434; with Wnt-C59 + OSI-027 (first compound 0.001 µM) it was 0.406; in the experiment with Wnt-C59 + OSI-027 (first compound 0.01 µM) it was 0.283; with Wnt-C59 + OSI-027 (first compound 0.03162 µM), 0.39. The relative viability with Wnt-C59 + OSI-027 (first compound 0.1 µM) worked out at 0.364; in the experiment with Lapatinib + Dasatinib (first compound 0.02 µM) it was 0.162; with Lapatinib + Dasatinib (first compound 0.06325 µM) it was 0.159; with Lapatinib + Dasatinib (first compound 0.2 µM) it was 0.179; with Lapatinib + Dasatinib (first compound 0.6325 µM), 0.205; in the experiment with Lapatinib + Dasatinib (first compound 2 µM) it was 0.182.
For SK-MES-1, the relative viability worked out at 0.726 with Lapatinib + Olaparib (first compound 0.02 µM); 0.699 in the experiment with Lapatinib + Olaparib (first compound 0.06325 µM); 0.569 with Lapatinib + Olaparib (first compound 0.2 µM); 0.464 with Lapatinib + Olaparib (first compound 0.6325 µM); 0.221 with Lapatinib + Olaparib (first compound 2 µM); 0.662 with Wnt-C59 + Olaparib (first compound 0.001 µM). Further, the relative viability with Wnt-C59 + Olaparib (first compound 0.01 µM) was 0.684; with Wnt-C59 + Olaparib (first compound 0.03162 µM) it was 0.863; with Wnt-C59 + Olaparib (first compound 0.1 µM), 0.615; in the experiment with Wnt-C59 + OSI-027 (first compound 0.001 µM) it was 0.673; with Wnt-C59 + OSI-027 (first compound 0.01 µM), 0.54; in the experiment with Wnt-C59 + OSI-027 (first compound 0.03162 µM), 0.666. The relative viability with Wnt-C59 + OSI-027 (first compound 0.1 µM) came to 0.567; with Lapatinib + Dasatinib (first compound 0.02 µM), 0.243; in the experiment with Lapatinib + Dasatinib (first compound 0.06325 µM), 0.143; with Lapatinib + Dasatinib (first compound 0.2 µM), 0.157; in the experiment with Lapatinib + Dasatinib (first compound 0.6325 µM), 0.19; in the experiment with Lapatinib + Dasatinib (first compound 2 µM), 0.126.
Turning to SW 900, the relative viability is 0.78 with Lapatinib + Olaparib (first compound 0.06325 µM); 0.574 with Lapatinib + Olaparib (first compound 0.2 µM); 0.864 with Lapatinib + Olaparib (first compound 0.6325 µM); 0.56 with Lapatinib + Olaparib (first compound 2 µM); 0.887 with Wnt-C59 + Olaparib (first compound 0.001 µM); 0.814 in the experiment with Wnt-C59 + Olaparib (first compound 0.01 µM). Further, the relative viability was determined as 0.987 with Wnt-C59 + Olaparib (first compound 0.03162 µM); 0.987 with Wnt-C59 + Olaparib (first compound 0.1 µM); 0.585 in the experiment with Wnt-C59 + OSI-027 (first compound 0.001 µM); 0.54 in the experiment with Wnt-C59 + OSI-027 (first compound 0.01 µM); 0.457 with Wnt-C59 + OSI-027 (first compound 0.03162 µM); 0.554 with Wnt-C59 + OSI-027 (first compound 0.1 µM). Besides, the relative viability with Lapatinib + Dasatinib (first compound 0.06325 µM) was determined as 0.435; in the experiment with Lapatinib + Dasatinib (first compound 0.2 µM), 0.479; in the experiment with Lapatinib + Dasatinib (first compound 0.6325 µM), 0.595; in the experiment with Lapatinib + Dasatinib (first compound 2 µM) it was 0.373.
For SW 1573, the relative viability is 0.401 with Lapatinib + Olaparib (first compound 0.02 µM); 0.443 in the experiment with Lapatinib + Olaparib (first compound 0.06325 µM); 0.519 with Lapatinib + Olaparib (first compound 0.2 µM); 0.444 with Lapatinib + Olaparib (first compound 0.6325 µM); 0.522 with Lapatinib + Olaparib (first compound 2 µM); 0.449 in the experiment with Wnt-C59 + Olaparib (first compound 0.001 µM). Besides, the relative viability with Wnt-C59 + Olaparib (first compound 0.01 µM) stood at 0.445; in the experiment with Wnt-C59 + Olaparib (first compound 0.03162 µM), 0.551; with Wnt-C59 + Olaparib (first compound 0.1 µM), 0.39; in the experiment with Wnt-C59 + OSI-027 (first compound 0.001 µM) it was 0.684; with Wnt-C59 + OSI-027 (first compound 0.01 µM), 0.659; with Wnt-C59 + OSI-027 (first compound 0.03162 µM), 0.63. Further, the relative viability is 0.639 with Wnt-C59 + OSI-027 (first compound 0.1 µM); 0.389 with Lapatinib + Dasatinib (first compound 0.02 µM); 0.381 with Lapatinib + Dasatinib (first compound 0.06325 µM); 0.738 with Lapatinib + Dasatinib (first compound 0.2 µM); 0.434 with Lapatinib + Dasatinib (first compound 0.6325 µM); 0.442 in the experiment with Lapatinib + Dasatinib (first compound 2 µM).

The values above are taken from the supplement of paper PMC10307832.
